Results as given in US11130761B2, “Substituted pyrrolo[2,1-f][1,2,4]triazines as FGFR inhibitors” (CSPC ZHONGQI PHARMACEUTICAL TECHNOLOGY (SHIJIAZHUANG) CO., …, priority 2016, dated 2021).

Key:
human FGFR1 = molecular target: T1, human FGFR1 (Homo sapiens, UniProt P11362); test: 33P isotope-labeled kinase activity assay (Reaction Biology Corp), FGFR1; format: biochemical; conditions: 33P-ATP kinase assay, ATP 5 μM, kinase 1.75 nM, substrate pEY + Mn, 120 minutes at room temperature
T1 construct: purchased Invitrogen PV3146
T1 sequence (P11362 22-822): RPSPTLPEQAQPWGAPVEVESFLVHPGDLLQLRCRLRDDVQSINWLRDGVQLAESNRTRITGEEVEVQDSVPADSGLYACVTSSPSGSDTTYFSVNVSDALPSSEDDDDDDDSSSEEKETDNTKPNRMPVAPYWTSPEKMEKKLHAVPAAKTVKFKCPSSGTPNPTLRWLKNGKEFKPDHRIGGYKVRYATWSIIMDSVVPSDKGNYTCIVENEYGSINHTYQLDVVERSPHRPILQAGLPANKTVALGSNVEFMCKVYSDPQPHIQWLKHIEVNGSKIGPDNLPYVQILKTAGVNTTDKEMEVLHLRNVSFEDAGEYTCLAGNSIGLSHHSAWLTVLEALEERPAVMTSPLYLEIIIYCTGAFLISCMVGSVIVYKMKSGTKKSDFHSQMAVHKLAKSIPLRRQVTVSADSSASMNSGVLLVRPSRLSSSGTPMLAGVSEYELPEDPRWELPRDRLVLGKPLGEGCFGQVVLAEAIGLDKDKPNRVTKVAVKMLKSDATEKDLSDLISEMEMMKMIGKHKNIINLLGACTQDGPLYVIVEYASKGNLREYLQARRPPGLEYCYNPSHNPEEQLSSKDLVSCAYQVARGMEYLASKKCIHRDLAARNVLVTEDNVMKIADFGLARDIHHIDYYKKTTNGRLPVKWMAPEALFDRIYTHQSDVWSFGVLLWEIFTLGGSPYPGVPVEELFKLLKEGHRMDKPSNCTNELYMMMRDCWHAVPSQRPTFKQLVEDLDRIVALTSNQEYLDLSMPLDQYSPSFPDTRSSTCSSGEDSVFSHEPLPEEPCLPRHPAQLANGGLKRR
Method: (§1) The IC50 value was determined by ^33P isotope-labeled kinase activity assay (Reaction Biology Corp) to evaluate the inhibitory activity of the test compounds on human FGFR1 and FGFR4.
(§2) Buffer: 20 mM Hepes (pH 7.5), 10 mM MgCl2, 1 mM EGTA, 0.02% Brij35, 0.02 mg/mL BSA, 0.1 mM Na3VO4, 2 mM DTT, 1% DMSO.
(§3) Test procedure: the test compound was dissolved in DMSO at room temperature to prepare a 10 mM solution for use. The substrate was dissolved in a freshly prepared buffer, followed by addition of the kinase to be tested and the resulting mixture was thoroughly mixed. The solution of the test compound in DMSO was added to the above reaction solution by acoustic technique (Echo 550). The concentration of the compound in the reaction solution was 10 μM, 3.33 μM, 1.11 μM, 0.370 μM, 0.123 μM, 41.2 nM, 13.7 nM, 4.57 nM, 1.52 nM, 0.508 nM, or […], 39.1 nM, 9.8 nM, 2.4 nM, 0.61 nM, 0.15 nM, 0.038 nM. After incubation for 15 minutes, ^33P-ATP (activity 0.01 μCi/μL, corresponding concentration was listed in table 1) was added to initiate the reaction. The reaction was allowed to proceed at room temperature for 120 minutes, then the reaction solution was spotted on P81 ion exchange filter paper (Whatman #3698-915). After the filter paper was washed with 0.75% phosphoric acid solution, the radioactivity of the remained phosphorylated substrate on the filter paper was determined. The kinase activity data was expressed as a ratio of the kinase activity of the test compound to the kinase activity of the control group (DMSO), and the IC50 value was obtained by curve fitting using Prism4 software (GraphPad).

human FGFR4 = molecular target: T2, human FGFR4 (Homo sapiens, UniProt P22455); test: 33P isotope-labeled kinase activity assay (Reaction Biology Corp), FGFR4; format: biochemical; conditions: for IC50: 33P-ATP kinase assay, ATP 100 μM, kinase 2.5 nM, substrate pEY + Mn, 120 minutes at room temperature; for Inhibition activity difference (IC50 ratio) FGFR4/FGFR1: ratio of FGFR4 IC50 to FGFR1 IC50
T2 construct: purchased Invitrogen P3054
T2 sequence (P22455 22-802): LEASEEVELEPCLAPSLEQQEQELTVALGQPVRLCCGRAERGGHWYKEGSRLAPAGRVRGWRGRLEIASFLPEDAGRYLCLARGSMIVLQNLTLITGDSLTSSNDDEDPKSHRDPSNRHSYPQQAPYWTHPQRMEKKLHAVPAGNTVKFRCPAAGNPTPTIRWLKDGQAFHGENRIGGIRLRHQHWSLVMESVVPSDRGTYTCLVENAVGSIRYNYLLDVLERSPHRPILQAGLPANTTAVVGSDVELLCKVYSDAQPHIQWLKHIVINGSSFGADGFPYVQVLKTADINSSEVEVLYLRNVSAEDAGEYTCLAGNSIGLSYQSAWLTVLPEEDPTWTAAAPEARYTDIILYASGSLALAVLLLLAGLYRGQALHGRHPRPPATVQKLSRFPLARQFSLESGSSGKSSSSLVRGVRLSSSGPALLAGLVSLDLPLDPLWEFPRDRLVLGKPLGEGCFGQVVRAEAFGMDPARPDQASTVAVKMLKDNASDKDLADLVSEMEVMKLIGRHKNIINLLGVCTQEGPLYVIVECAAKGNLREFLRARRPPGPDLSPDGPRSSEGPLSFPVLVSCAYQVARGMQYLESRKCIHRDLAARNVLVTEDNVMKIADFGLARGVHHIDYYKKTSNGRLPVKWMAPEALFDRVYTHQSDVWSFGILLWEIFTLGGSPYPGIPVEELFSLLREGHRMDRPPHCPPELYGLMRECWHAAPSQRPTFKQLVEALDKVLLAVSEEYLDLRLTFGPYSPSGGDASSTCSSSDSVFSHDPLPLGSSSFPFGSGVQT
Method: as §1, §2, §3

| Structure (SMILES) | IC50 (human FGFR1) [nM] | IC50 (human FGFR4) [nM] | Inhibition activity difference (IC50 ratio) FGFR4/FGFR1 (human FGFR4) |
| --- | --- | --- | --- |
| C=CC(=O)N1CCC(c2cc(C#Cc3c(Cl)c(OC)cc(OC)c3Cl)c3c(N)ncnn23)C1 (single isomer, unassigned) [Embodiment 6] | 0.3 | 4.6 | 15 |
| C=CC(=O)N1CCC(c2cc(C#Cc3cc(OC)cc(OC)c3)c3c(N)ncnn23)C1 (single isomer, unassigned) [Embodiment 1] | 18.3 | 125 | 7 |

Next, values leading:

| IC50 (human FGFR1) [nM] | IC50 (human FGFR4) [nM] | Inhibition activity difference (IC50 ratio) FGFR4/FGFR1 (human FGFR4) | Structure (SMILES) |
| --- | --- | --- | --- |
| 0.07 | 0.08 | 1 | C=CC(=O)N1CCC(c2cc(C#Cc3c(F)c(OC)cc(OC)c3F)c3c(N)ncnn23)C1 (single isomer, unassigned) [Embodiment 4] |
| 0.7 | 6.6 | 9 | C=CC(=O)N1CCC(c2cc(C#Cc3c(F)c(OC)cc(OC)c3F)c3c(N)ncnn23)C1 (single isomer, unassigned) [Embodiment 3] |
| 21.8 | 450 | 21 | C=CC(=O)N1CCC(c2cc(C#Cc3c(Cl)c(OC)cc(OC)c3Cl)c3c(N)ncnn23)C1 (single isomer, unassigned) [Embodiment 5] |
